These compounds were tested on HT-1080 (ATCC, CCL-121) cells (assay: HT-1080 cell viability assay with ferroptosis inducer RSL3 (Cell Titer-Glo)). Details: Homo sapiens; HT-1080 cells treated with RSL3; 3-fold, 10-point dilution, 1.1 μM highest concentration; Table 2; read-out: EC50 (nM), ferroptosis inhibitory activity.
Type: cell-based
Procedure, shortened: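 EC50 was derived by sigmoidal dose-response regression of CellTiter-Glo luminescence viability, expressed relative to untreated wells. Compounds were tested in a ten-point, threefold dilution series (highest 1.1 μM) in the presence of the ferroptosis inducer RSL3. HT-1080 cells had been seeded at 6000 per well and grown overnight first.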

Row | Structure (SMILES) | EC50 [nM]
1 | Cc1cc(Nc2ccc3c(c2)OCC(=O)N3)cnc1N1C[C@@H](C)O[C@@H](C)C1 [Compound 151, 7-((6-(2,6-dimethylmorpholino)-5-methylpyridin-3-yl)amino)-2H-benzo[b][1,4]oxazin-3(4H)-one] | 0.1 to 100
2 | CC1CN(c2ccc(Nc3ccc4c(c3)OCC(=O)N4C)cc2)CC(C)O1 (centres unmarked) [Compound 44, 7-((4-(2,6-dimethylmorpholino)phenyl)amino)-4-methyl-2H-benzo[b][1,4]oxazin-3(4H)-one] | 0.1 to 100
3 | CC1CN(c2ccc3cc(Nc4ccc5c(c4)OCC(=O)N5C)ccc3n2)CC(C)O1 (centres unmarked) [Compound 65, 7-((2-(2,6-dimethylmorpholino)quinolin-6-yl)amino)-4-methyl-2H-benzo[b][1,4]oxazin-3(4H)-one] | 0.1 to 100
4 | CN1C(=O)COc2cc(Nc3ccc(C4CCC(C)(C)CC4)cc3)ccc21 [Compound 35, 7-((4-(4,4-dimethylcyclohexyl)phenyl)amino)-4-methyl-2H-benzo[b][1,4]oxazin-3(4H)-one] | 0.1 to 100
5 | Cn1c(=O)oc2ccc(Nc3ccc(N4CCC(C(F)(F)F)CC4)cc3)cc21 [Compound 349, 3-methyl-5-((4-(4-(trifluoromethyl)piperidin-1-yl)phenyl)amino)benzo[d]oxazol-2(3)-one] | 0.1 to 100
6 | O=C1c2ccc(Nc3ccc(N4CCC(C(F)(F)F)CC4)cc3)cc2CN1CC=C(F)F [Compound 215, 2-(3,3-difluoroallyl)-5-((4-(4-(trifluoromethyl)piperidin-1-yl)phenyl)amino)isoindolin-1-one] | 0.1 to 100
7 | CC1(C)CCC(c2ccc(Nc3ccc4nc(N)sc4c3)cc2)CC1 [Compound 409, N^6-(4-(4,4-dimethylcyclohexyl)phenyl)benzo[d]thiazole-2,6-diamine] | 0.1 to 100
8 | Cn1c(=O)n(C)c2cc(Nc3ccc(C4CCC(C)(C)CC4)cc3)ccc21 [Compound 407, 5-((4-(4,4-dimethylcyclohexyl)phenyl)amino)-1,3-dimethyl-1,3-dihydro-2H-benzo[d]imidazol-2-one] | 0.1 to 100
9 | CC1CN(c2ccc(Nc3ccc4c(c3)n(C)c(=O)n4C)cc2)CC(C)O1 (centres unmarked) [Compound 279, 5-((4-(2,6-dimethylmorpholino)phenyl)amino)-1,3-dimethyl-1,3-dihydro-2H-benzo[d]imidazol-2-one] | 0.1 to 100
10 | CCn1c2cc(Nc3ccc(N4CCC(C(F)(F)F)CC4)cc3)ccc2c(=O)n1C [Compound 218, 1-ethyl-2-methyl-6-((4-(4-(trifluoromethyl)piperidin-1-yl)phenyl)amino)-1,2-dihydro-3H-indazol-3-one] | 0.1 to 100
11 | CN1Cc2cc(Nc3ccc(N4CCCCC4)c(Cl)c3)ccc2C1=O [Compound 225, 5-((3-chloro-4-(piperidin-1-yl)phenyl)amino)-2-methylisoindolin-1-one] | 0.1 to 100
12 | CN1C(=O)COc2cc(Nc3ccc(N4C[C@@H]5C[C@H]4CO5)c(F)c3)ccc21 [Compound 97, 7-((4-((1S,4S)-2-oxa-5-azabicyclo[2.2.1]heptan-5-yl)-3-fluorophenyl)amino)-4-methyl-2H-benzo[b][1,4]oxazin-3(4H)-one] | 0.1 to 100
13 | COc1cc(Nc2ccc3c(c2)n(C)c(=O)n3C)cnc1N1CCC(C(F)(F)F)CC1 [Compound 372, 5-((5-methoxy-6-(4-(trifluoromethyl)piperidin-1-yl)pyridin-3-yl)amino)-1,3-dimethyl-1,3-dihydro-2H-benzo[d]imidazol-2-one] | 0.1 to 100
14 | Cn1c(NCC2CC2)cc2ccc(Nc3ccc(N4CCC(C(F)(F)F)CC4)cc3)cc21 [Compound 396, N2-(cyclopropylmethyl)-1-methyl-N6-(4-(4-(trifluoromethyl)piperidin-1-yl)phenyl)-1H-indole-2,6-diamine] | 0.1 to 100
15 | CC1(C)CCC(c2ccc(Oc3ccc4nc(N)sc4c3)cc2)CC1 [Compound 408, 6-(4-(4,4-dimethylcyclohexyl)phenoxy)benzo[d]thiazol-2-amine] | 0.1 to 100
16 | Cn1c(=O)oc2ccc(Nc3ccc(N4CCCCC4)cc3)cc21 [Compound 389, 3-methyl-5-((4-(piperidin-1-yl)phenyl)amino)benzo[d]oxazol-2(3H)-one] | 0.1 to 100
17 | Cc1cc(N2CCC(C(F)(F)F)CC2)ccc1Nc1ccc2c(c1)OCC(=O)N2C [Compound 78, 4-methyl-7-((2-methyl-4-(4-(trifluoromethyl)piperidin-1-yl)phenyl)amino)-2H-benzo[b][1,4]oxazin-3(4H)-one] | 0.1 to 100
18 | COCCCN1C(=O)COc2cc(Nc3ccc(N4CCC(C(F)(F)F)CC4)cc3)ccc21 [Compound 10, 4-(3-methoxypropyl)-7-((4-(4-(trifluoromethyl)piperidin-1-yl)phenyl)amino)-2H-benzo[b][1,4]oxazin-3(4H)-one] | 0.1 to 100
19 | COCCOc1ccc(Nc2ccc3c(c2)n(C)c(=O)n3C)cc1 [Compound 318, 5-((4-(2-methoxyethoxy)phenyl)amino)-1,3-dimethyl-1,3-dihydro-2H-benzo[d] imidazol-2-one] | 0.1 to 100
20 | COc1cc(Nc2ccc(N3CCC(C(F)(F)F)CC3)cc2)cc2c1ccn2C [Compound 395, 4-methoxy-1-methyl-N-(4-(4-(trifluoromethyl)piperidin-1-yl)phenyl)-1H-indol-6-amine] | 0.1 to 100
21 | CC1CCN(c2ccc(Nc3ccc4c(c3)n(C)c(=O)n4C)cc2)CC1 [Compound 287, 1,3-dimethyl-5-((4-(4-methylpiperidin-1-yl)phenyl)amino)-1,3-dihydro-2H-benzo[d]imidazol-2-one] | 0.1 to 100

Same assay, conditions: Homo sapiens; HT-1080 cells treated with RSL3; 3-fold, 10-point dilution, 1.1 μM highest concentration; Table 3; read-out: EC50 (nM), ferroptosis inhibitory activity

Row | Structure (SMILES) | EC50 [nM]
22 | Cc1cc(N2C[C@@H](C)O[C@@H](C)C2)ccc1Nc1ccc2c(c1)CNC(=O)N2 [Compound 494, 6-((4-((2R,6S)-2,6-dimethylmorpholino)-2-methylphenyl)amino)-3,4-dihydroquinazolin-2(1H)-one] | 0.1 to 100
23 | C[C@H]1CN(c2ccc(Nc3ccc4c(c3)OCC(=O)N4)cc2)CCN1CC(F)(F)F [Compound 581, (S)-7-((4-(3-methyl-4-(2,2,2-trifluoroethyl)piperazin-1-yl)phenyl)amino)-2H-benzo[b][1,4]oxazin-3(4H)-one] | 0.1 to 100
24 | O=C1COc2cc(Nc3ccc(N4CCC(F)CC4)cc3)ccc2N1 [Compound 508, 7-((4-(4-fluoropiperidin-1-yl)phenyl)amino)-2H-benzo[b][1,4]oxazin-3(4H)-one] | 0.1 to 100
25 | Cc1cc(N2CC(C)OC(C)C2)ccc1Nc1ccc2c(c1)OCC(=O)N2CCO (centres unmarked) [Compound 456, 7-((4-(2,6-dimethylmorpholino)-2-methylphenyl)amino)-4-(2-hydroxyethyl)-2H-benzo[b][1,4]oxazin-3(4H)-one] | 0.1 to 100
26 | CC1CC(C(F)(F)F)CCN1c1ccc(Nc2ccc3c(c2)OCC(=O)N3)cc1 (centres unmarked) [Compound 642, 7-((4-(2-methyl-4-(trifluoromethyl)piperidin-1-yl)phenyl)amino)-2H-benzo[b][1,4]oxazin-3(4H)-one] | 0.1 to 100

From patent publication US20240327393A1 (SIRONAX LTD., priority 2021, published 2024)
